Reference: patent US9302999B2, “Substituted triazoles as herbicides” (E. I. DU PONT DE NEMOURS AND COMPANY, priority 2012, dated 2016)

Legend:
Type in all cases: in vivo
[1] = tested on: barnyardgrass (Echinochloa crus-galli); test: Test A pre-/postemergence: barnyardgrass; settings: Postemergence, 0 to 100 scale, 0 is no effect, 100 is complete control; for Plant response rating, Barnyardgrass: 125 g ai/ha; for Barnyardgrass plant response rating: 500 g ai/ha
In short: (§1)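 Visual 0–100 injury ratings (0 no effect, 100 complete control) taken about ten days after treatment, relative to untreated controls. Preemergence treatment was a directed soil spray; postemergence plants were 2–10 cm tall at one- to two-leaf stage. Soil: loam/sand blend.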

[2] = tested on: large crabgrass (Digitaria sanguinalis); test: Test C pre-/postemergence: large crabgrass
In short: (§2)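 Visual injury scored 0–100 (100 = complete control) against untreated controls after 13–15 greenhouse days. Surfactant-containing solvent formulations applied either to soil after sowing (loam/sand) or over 1- to 4-leaf plants, 2–18 cm tall.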

[3] = tested on: pigweed (Amaranthus retroflexus); test: Test A pre-/postemergence: pigweed
In short: as §1

[4] = tested on: foxtail, giant (giant foxtail, Setaria faberii); test: Test C pre-/postemergence: foxtail, giant
In short: as §2

[5] = tested on: corn (Zea mays); test: Test C pre-/postemergence: corn
In short: as §2

[6] = tested on: crabgrass, large (large crabgrass, Digitaria sanguinalis); test: Test A pre-/postemergence: crabgrass, large
In short: as §1

[7] = tested on: nutsedge, yellow (yellow nutsedge, Cyperus esculentus); test: Test C pre-/postemergence: nutsedge, yellow
In short: as §2

[8] = tested on: wheat (Triticum aestivum); test: Test A pre-/postemergence: wheat
In short: as §1

[9] = tested on: morningglory (Ipomoea coccinea); test: Test C pre-/postemergence: morningglory
In short: as §2

[10] = tested on: lambsquarters (Chenopodium album); test: Test C pre-/postemergence: lambsquarters
In short: as §2

[11] = tested on: blackgrass (Alopecurus myosuroides); test: Test C pre-/postemergence: blackgrass
In short: as §2

[12] = Postemergence, 31 g ai/ha, scale 0 to 100 (0 no effect, 100 complete control)
[13] = Postemergence, 62 g ai/ha, scale 0 to 100 (0 no effect, 100 complete control)
[14] = Postemergence, 125 g ai/ha, scale 0 to 100, 0 no effect, 100 complete control
[15] = Postemergence, 250 g ai/ha, scale 0 to 100
[16] = Preemergence, 31 g ai/ha, scale 0 (no effect) to 100 (complete control)
[17] = Preemergence, 62 g ai/ha, scale of 0 to 100, 0 is no effect, 100 is complete control
[18] = Preemergence, 125 g ai/ha, scale 0 to 100, 0 no effect, 100 complete control
[19] = Preemergence, 250 g ai/ha, scale 0 to 100, 0 no effect, 100 complete control
[20] = Postemergence, 125 g ai/ha, 0 to 100 scale, 0 is no effect, 100 is complete control
[21] = Postemergence, 500 g ai/ha, 0 to 100 scale, 0 is no effect, 100 is complete control
[22] = Preemergence, 125 g ai/ha, 0 to 100 scale where 0 is no effect and 100 is complete control
[23] = Preemergence, 500 g ai/ha, 0 to 100 scale (0 no effect, 100 complete control)
[24] = Postemergence, 250 g ai/ha, scale 0 to 100 (0 no effect, 100 complete control)

## CCCc1nn(-c2ccc(C(F)(F)F)cc2)nc1Oc1ccnc(C(F)(F)F)c1 [Compound 170]
[1]
  Plant response rating, Barnyardgrass: 90
  Barnyardgrass plant response rating: 90
[2]; [12]
  Plant response rating, Crabgrass, Large: 30
[2]; [13]
  Plant response rating, Crabgrass, Large: 30
[2]; [14]
  Plant response rating, Crabgrass, Large: 80
[2]; [15]
  Plant response rating, Crabgrass, Large: 90
[2]; [16]
  Plant response rating, Crabgrass, Large: 100
[2]; [17]
  Plant response rating, Crabgrass, Large: 100
[2]; [18]
  Plant response rating, Crabgrass, Large: 100
[2]; [19]
  Plant response rating, Crabgrass, Large: 100
[3]; [20]
  Plant response rating, Pigweed: 100
[3]; [21]
  Pigweed plant response rating: 100
[3]; [22]
  Plant response rating, Pigweed: 100
[3]; [23]
  Plant response rating, Pigweed: 100
[4]; [12]
  Plant response rating, Foxtail, Giant: 55
[4]; [13]
  Plant response rating, Foxtail, Giant: 80
[4]; [14]
  Plant response rating, Foxtail, Giant: 98
[4]; [15]
  Plant response rating, Foxtail, Giant: 98
[4]; [16]
  Plant response rating, Foxtail, Giant: 98
[4]; [17]
  Plant response rating, Foxtail, Giant: 100
[4]; [18]
  Plant response rating, Foxtail, Giant: 100
[4]; [19]
  Plant response rating, Foxtail, Giant: 100
[5]; [12]
  Plant response rating, Corn: 15
[5]; [13]
  Plant response rating, Corn: 25
[5]; [14]
  Plant response rating, Corn: 30
[5]; [15]
  Plant response rating, Corn: 30
[5]; [16]
  Plant response rating, Corn: 5
[5]; [17]
  Plant response rating, Corn: 10
[5]; [18]
  Plant response rating, Corn: 15
[5]; [19]
  Plant response rating, Corn: 60
[6]; [20]
  Plant response rating, Crabgrass, Large: 100
[6]; [21]
  Crabgrass, Large plant response rating: 100
[6]; [22]
  Plant response rating, Crabgrass, Large: 100
[6]; [23]
  Plant response rating, Crabgrass, Large: 100
[7]; [12]
  Plant response rating, Nutsedge, Yellow: 5
[7]; [13]
  Plant response rating, Nutsedge, Yellow: 5
[7]; [14]
  Plant response rating, Nutsedge, Yellow: 5
[7]; [24]
  Plant response rating, Nutsedge, Yellow: 10
[7]; [16]
  Plant response rating, Nutsedge, Yellow: 0
[7]; [17]
  Plant response rating, Nutsedge, Yellow: 5
[7]; [19]
  Plant response rating, Nutsedge, Yellow: 5
[8]; [20]
  Plant response rating, Wheat: 40
[8]; [21]
  Wheat plant response rating: 50
[8]; [22]
  Plant response rating, Wheat: 60
[8]; [23]
  Plant response rating, Wheat: 80
[9]; [12]
  Plant response rating, Morningglory: 75
[9]; [13]
  Plant response rating, Morningglory: 98
[9]; [14]
  Plant response rating, Morningglory: 100
[9]; [24]
  Plant response rating, Morningglory: 100
[9]; [16]
  Plant response rating, Morningglory: 35
[9]; [17]
  Plant response rating, Morningglory: 55
[9]; [18]
  Plant response rating, Morningglory: 100
[9]; [19]
  Plant response rating, Morningglory: 100
[10]; [12]
  Plant response rating, Lambsquarters: 85
[10]; [13]
  Plant response rating, Lambsquarters: 95
[10]; [14]
  Plant response rating, Lambsquarters: 95
[10]; [24]
  Plant response rating, Lambsquarters: 98
[10]; [16]
  Plant response rating, Lambsquarters: 85
[10]; [17]
  Plant response rating, Lambsquarters: 85
[10]; [18]
  Plant response rating, Lambsquarters: 98
[10]; [19]
  Plant response rating, Lambsquarters: 98
[11]; [12]
  Plant response rating, Blackgrass: 10
[11]; [13]
  Plant response rating, Blackgrass: 10
[11]; [14]
  Plant response rating, Blackgrass: 60
[11]; [15]
  Plant response rating, Blackgrass: 70
[11]; [16]
  Plant response rating, Blackgrass: 90
[11]; [17]
  Plant response rating, Blackgrass: 95
[11]; [18]
  Plant response rating, Blackgrass: 100
[11]; [19]
  Plant response rating, Blackgrass: 100

## CCc1nn(-c2ccc(F)c(F)c2)nc1Oc1ccnc(C(F)(F)F)c1 [Compound 171]
[1]
  Plant response rating, Barnyardgrass: 80
  Barnyardgrass plant response rating: 90
[2]; [12]
  Plant response rating, Crabgrass, Large: 15
[2]; [13]
  Plant response rating, Crabgrass, Large: 20
[2]; [14]
  Plant response rating, Crabgrass, Large: 40
[2]; [15]
  Plant response rating, Crabgrass, Large: 55
[2]; [16]
  Plant response rating, Crabgrass, Large: 85
[2]; [17]
  Plant response rating, Crabgrass, Large: 100
[2]; [18]
  Plant response rating, Crabgrass, Large: 100
[2]; [19]
  Plant response rating, Crabgrass, Large: 100
[3]; [20]
  Plant response rating, Pigweed: 100
[3]; [21]
  Pigweed plant response rating: 100
[3]; [22]
  Plant response rating, Pigweed: 100
[3]; [23]
  Plant response rating, Pigweed: 100
[4]; [12]
  Plant response rating, Foxtail, Giant: 25
[4]; [13]
  Plant response rating, Foxtail, Giant: 35
[4]; [14]
  Plant response rating, Foxtail, Giant: 55
[4]; [15]
  Plant response rating, Foxtail, Giant: 70
[4]; [16]
  Plant response rating, Foxtail, Giant: 98
[4]; [17]
  Plant response rating, Foxtail, Giant: 100
[4]; [18]
  Plant response rating, Foxtail, Giant: 100
[4]; [19]
  Plant response rating, Foxtail, Giant: 100
[5]; [12]
  Plant response rating, Corn: 15
[5]; [13]
  Plant response rating, Corn: 15
[5]; [14]
  Plant response rating, Corn: 15
[5]; [15]
  Plant response rating, Corn: 15
[5]; [16]
  Plant response rating, Corn: 0
[5]; [17]
  Plant response rating, Corn: 0
[5]; [18]
  Plant response rating, Corn: 5
[5]; [19]
  Plant response rating, Corn: 25
[6]; [20]
  Plant response rating, Crabgrass, Large: 90
[6]; [21]
  Crabgrass, Large plant response rating: 100
[6]; [22]
  Plant response rating, Crabgrass, Large: 100
[6]; [23]
  Plant response rating, Crabgrass, Large: 100
[7]; [12]
  Plant response rating, Nutsedge, Yellow: 5
[7]; [13]
  Plant response rating, Nutsedge, Yellow: 5
[7]; [14]
  Plant response rating, Nutsedge, Yellow: 10
[7]; [24]
  Plant response rating, Nutsedge, Yellow: 10
[7]; [16]
  Plant response rating, Nutsedge, Yellow: 0
[7]; [17]
  Plant response rating, Nutsedge, Yellow: 0
[7]; [18]
  Plant response rating, Nutsedge, Yellow: 0
[7]; [19]
  Plant response rating, Nutsedge, Yellow: 0
[8]; [20]
  Plant response rating, Wheat: 30
[8]; [21]
  Wheat plant response rating: 40
[8]; [22]
  Plant response rating, Wheat: 10
[8]; [23]
  Plant response rating, Wheat: 60
[9]; [12]
  Plant response rating, Morningglory: 60
[9]; [13]
  Plant response rating, Morningglory: 65
[9]; [14]
  Plant response rating, Morningglory: 98
[9]; [16]
  Plant response rating, Morningglory: 0
[9]; [17]
  Plant response rating, Morningglory: 20
[9]; [18]
  Plant response rating, Morningglory: 25
[9]; [19]
  Plant response rating, Morningglory: 25
[10]; [12]
  Plant response rating, Lambsquarters: 75
[10]; [13]
  Plant response rating, Lambsquarters: 75
[10]; [14]
  Plant response rating, Lambsquarters: 95
[10]; [24]
  Plant response rating, Lambsquarters: 95
[10]; [16]
  Plant response rating, Lambsquarters: 100
[10]; [17]
  Plant response rating, Lambsquarters: 100
[10]; [19]
  Plant response rating, Lambsquarters: 100
[11]; [12]
  Plant response rating, Blackgrass: 5
[11]; [13]
  Plant response rating, Blackgrass: 10
[11]; [14]
  Plant response rating, Blackgrass: 10
[11]; [15]
  Plant response rating, Blackgrass: 30
[11]; [16]
  Plant response rating, Blackgrass: 5
[11]; [17]
  Plant response rating, Blackgrass: 98
[11]; [18]
  Plant response rating, Blackgrass: 100
[11]; [19]
  Plant response rating, Blackgrass: 100
